The text below walks through data of the CheMixHub ionic liquid set.

The nature of this series: xn = mol fraction of the nth substance listed. To be noted: 100 kPa, x2 = 0.3333.

The term viscosity denotes the internal friction of a fluid under shear. A higher viscosity goes with sluggish flow.

± gives the uncertainty stated by the source.

As for `CCCCCCCCCC(=O)O` + CCCCCCCCCCCCCC[P+](CCCCCC)(CCCCCC)CCCCCC.[Cl-], the viscosity is 350 ± 140 mPa·s (293 K); 260 ± 110 mPa·s (298 K); 94 ± 38 mPa·s (318 K); 63 ± 25 mPa·s (328 K); 53 ± 21 mPa·s (333 K).
